Source: patent US20240216344A1, “THIAZOLIDINEDIONE ANALOGS FOR THE TREATMENT OF NAFLD AND METABOLIC DISEASES” (Cirius Therapeutics, Inc., priority 2019, published 2024)

How the values were obtained:
[1] = system: patients with biopsy-proven NASH with fibrosis and no cirrhosis; assay: EMMINENCE Phase 2b trial, safety and weight; format: in vivo
Experimental: The primary efficacy endpoint was assessed at 12 months. Clinic visits were conducted at baseline, 1, 2, 3, 6, 9, and 12 months, followed 2 weeks later by a safety visit.
Safety: Safety was evaluated by adverse event incidence, and changes in clinical laboratory values, vital signs, and ECG parameters. Major adverse cardiovascular events (MACE) including death, non-fatal myocardial infarction (MI), unstable angina (USA) hospitalization, hospital admission for heart failure (HF), or non-fatal ischemic stroke; liver events including ascites, hepatic encephalopathy, variceal hemorrhage, hepatocellular carcinoma (HCC), or liver transplant; severe hypoglycemia; and bone fracture requiring surgery or hospitalization were adjudicated by an independent physician.
Using a modified intent-to-treat approach, treated patients were included for analysis in their randomly-assigned treatment groups. Participation of sites with serious GCP or quality concerns were terminated and their data excluded from the analyses. Post-baseline measures through 14 days after the last study drug dose were included. […] The central histopathologist's re-read of baseline biopsies was used as baseline. Patients who no longer qualified on re-read were included in the analyses. […] Stratification-adjusted risk differences adjusted similarly are provided. The primary analyses included only observed data; sensitivity analyses included multiply-imputing missing follow-up and considering missing follow-up as a non-responder. Each active dose was compared to placebo regarding changes in NASH CRN scores using analysis of covariance with adjustment for age, sex, diabetes mellitus, Vitamin E≥400 IU, baseline fibrosis F1 versus F2/F3, and the baseline value. Changes in laboratory markers from baseline to 6 months and to 12 months were analyzed similarly.

patients with NASH = assay: Meta-analysis of 17 NASH clinical trials: change from baseline in LFTs and biomarkers by study arm, composite outcome; format: in vivo, human; conditions: for % Change from Baseline ALT / % Change from Baseline AST / % Change from Baseline Alk Phos / % Change from Baseline CK-18 / % Change from Baseline ELF / % Change from Baseline GGT / % Change from Baseline HbA1c / % Change from Baseline Insulin: EMMINENCE, follow-up 12 months
Experimental: Meta-regressions of NASH clinical trials were performed to examine associations between biomarker and histological changes within treatment groups, and to additionally examine associations between treatment effects on biomarkers and on liver histology. Trials that met the following criteria were included: • Randomized controlled clinical trial • Paired biopsies performed at baseline and follow-up, scored using the NASH CRN system.
• Published results at baseline, follow-up, or changes from baseline for any the following liver injury markers or biomarkers: alanine aminotransferase (ALT), aspartate aminotransferase (AST), alkaline phosphatase, hemoglobin A1c (HbA1c), gamma-glutamyltransferase (GGT), insulin, cytokeratin-18 (CK-18), or Enhanced Liver Fibrosis (ELF) score. Variables selected were based on variables whose change was commonly reported in multiple studies. • Changes in histological scores for ballooning, inflammation, steatosis, and fibrosis, or the pre-determined endpoints of NASH resolution without worsening fibrosis or improvement in fibrosis with no worsening of NASH.
All results from a search of PubMed for the keywords (“nonalcoholic steatohepatitis” or “non-alcoholic steatohepatitis”) and (“clinical trial” or “randomized”) and filtered for “Clinical Trial” were reviewed. EudraCT and ClinicalTrials.gov were searched for the keyword “nonalcoholic steatohepatitis” with results further filtered for phase 2 or 3, interventional, terminated or completed trials. These three sources returned 265 (PubMed), 153 (ClinicalTrials.gov), and 56 (EudraCT) results, which were each individually reviewed for inclusion in the analysis. Data extracted by one analyst from each source that included means and SDs at baseline, end of study, and changes from baseline to end of study for continuous variables were verified and corrected by a second analyst. Where SDs were not available, any provided estimate of variation was used to derive the SD where possible; a plot-digitizer program was used where data were presented in figures only. Data for dichotomous endpoints were extracted as the number of subjects with the event and corresponding sample size.
Random effects weighted least squares meta-regressions with inverse variance weighting were used to examine the association of changes in ALT, AST, CK-18, HbA1c, fasting insulin levels, ELF, alkaline phosphatase and GGT with biopsy outcomes. CK-18[M30] was measured in all studies except EMMINENCE where CK-18[M651 was reported. These associations were assessed at an individual cohort level (within treatment group), as well as based on the treatment effect. Percent change from baseline in liver injury makers and biomarkers was used as the predictor when examining the associations in the individual cohorts with outcomes while the treatment ratio, the ratio of active to placebo with respect to the relative changes from baseline, was used as the predictor when assessing the association with the treatment effect on outcomes. Standardized mean changes (mean/SD) or standardized mean treatment differences (mean difference/pooled SD) were used for continuous outcomes and Freeman-Tukey double arcsine transformed proportions or log odds ratios were used for dichotomous outcomes. Meta-regression results were computed using the metafor package available in R. P-values <0.05 were considered statistically significant.
From the meta-regression results, ranks for the association with responses and treatment effects for each histologic outcome (changes in ballooning, inflammation, steatosis, and fibrosis; NASH resolution without worsening of fibrosis, and fibrosis improvement without worsening of NAS) were assigned across seven biomarkers (AST, GGT, HbA1c, insulin, CK-18, ELF, and alkaline phosphatase) for both the slope and the mediator p-value (ranks 1-7, with 7 assigned to the biomarker with the greatest slope or lowest p-value). An average rank across all outcomes was then assigned to each biomarker. […]

For `COc1cccc(C(=O)COc2ccc(CC3SC(=O)NC3=O)cc2)c1` (stereo not drawn) [MSDC-0602K], the “Non-cardiac chest pain (SAE)” value ([1]; 62.5 mg) was 1 patients, the “Subjects with TEAEs Leading to Study Drug Discontinuation” value (“Subjects with TEAEs Leading” below) ([1]; 62.5 mg) was 2 (2.0) n (%) and the “Subjects with TEAEs Related to Study Drug” value ([1]; 62.5 mg) was 22 (22.2) n (%). The “Subjects with TEAEs Related to Study Drug and Leading to Study Drug Discontinuation” value ([1]; 62.5 mg) was 0 (0.0) n (%), the “Subjects with any Treatment-Emergent Adverse Event (TEAE)” value (shortened to “Subjects … (TEAE)”) ([1]; 62.5 mg) was 78 (78.8) n (%) and the “TESAE: General disorders and administration site conditions” value ([1]; 62.5 mg) was 1 ( 1.0) n (%). For the same compound, the “TESAE: Non-cardiac chest pain” value ([1]; 62.5 mg) was 1 ( 1.0) n (%), the “adverse events of edema” value ([1]; 62.5 mg) was 6 patients and the “fractures requiring hospitalization or surgery” value ([1]; 62.5 mg) was 1 patients. For the same compound, the treatment discontinuation rate ([1]; 62.5 mg) was 9.1%, the “unadjusted median weight change” value ([1]; 62.5 mg) was 0.82 kg and the “Non-cardiac chest pain (SAE)” value ([1]; 125 mg) was 1 patients. For the same compound, the “Subjects with TEAEs Leading” value ([1]; 125 mg) was 3 (3.1) n (%), the “Subjects with TEAEs Related to Study Drug” value ([1]; 125 mg) was 26 (26.5) n (%) and the “Subjects with TEAEs Related to Study Drug and Leading to Study Drug Discontinuation” value ([1]; 125 mg) was 1 (1.0) n (%). The “Subjects … (TEAE)” value ([1]; 125 mg) was 76 (77.6) n (%), the “TESAE: General disorders and administration site conditions” value ([1]; 125 mg) was 2 (2.0) n (%) and the “TESAE: Non-cardiac chest pain” value ([1]; 125 mg) was 1 (1.0) n (%). For the same compound, the “adjudicated HF hospitalization” value ([1]; 125 mg) was “One”, the “adjudicated MACE” value ([1]; 125 mg) was “two” and the “adverse events of edema” value ([1]; 125 mg) was 11 patients. The “fractures requiring hospitalization or surgery” value ([1]; 125 mg) was 1 patients, the treatment discontinuation rate ([1]; 125 mg) was 12.2% and the “unadjusted median weight change” value ([1]; 125 mg) was 1.10 kg. For the same compound, the unrelated deaths ([1]; 125 mg) was “one”, the “Subjects with TEAEs Leading” value ([1]; 250 mg) was 1 (1.0) n (%) and the “Subjects with TEAEs Related to Study Drug” value ([1]; 250 mg) was 25 (24.8) n (%). The “Subjects with TEAEs Related to Study Drug and Leading to Study Drug Discontinuation” value ([1]; 250 mg) was 0 (0.0) n (%), the “Subjects … (TEAE)” value ([1]; 250 mg) was 77 (76.2) n (%) and the “TESAE: General disorders and administration site conditions” value ([1]; 250 mg) was 1 (1.0) n (%). The “TESAE: Non-cardiac chest pain” value ([1]; 250 mg) was 0 (0.0) n (%), the “adjudicated severe hypoglycemia event” value ([1]; 250 mg) was “One” and the “adverse events of edema” value ([1]; 250 mg) was 7 patients. For the same compound, the “fractures requiring hospitalization or surgery” value ([1]; 250 mg) was 2 patients, the treatment discontinuation rate ([1]; 250 mg) was 12.9% and the “unadjusted median weight change” value ([1]; 250 mg) was 2.28 kg. The tolerability ([1]; 12 months daily oral) was “well tolerated”, the adjudicated liver events ([1]; all groups) was “no adjudicated liver events occurred” and the “treatment effect on the surrogate endpoint (weighted average of changes in AST, CK-18, HbA1c)” value (patients with NASH; 17 NASH clinical trials) was “largest treatment effects”. For the same compound, the “% Change from Baseline ALT” value (patients with NASH; 62.5 mg) was −15.71%, the “% Change from Baseline AST” value (patients with NASH; 62.5 mg) was −8.08% and the “% Change from Baseline Alk Phos” value (patients with NASH; 62.5 mg) was −6.28%. For the same compound, the “% Change from Baseline CK-18” value (patients with NASH; 62.5 mg) was −7.08%, the “% Change from Baseline ELF” value (patients with NASH; 62.5 mg) was 1.16% and the “% Change from Baseline GGT” value (patients with NASH; 62.5 mg) was −17.56%. For the same compound, the “% Change from Baseline HbA1c” value (patients with NASH; 62.5 mg) was −4.16%, the “% Change from Baseline Insulin” value (patients with NASH; 62.5 mg) was −10.85% and the “% Change from Baseline ALT” value (patients with NASH; 125 mg) was −28.13%. The “% Change from Baseline AST” value (patients with NASH; 125 mg) was −21.90%, the “% Change from Baseline Alk Phos” value (patients with NASH; 125 mg) was −10.70% and the “% Change from Baseline CK-18” value (patients with NASH; 125 mg) was −22.13%. For the same compound, the “% Change from Baseline ELF” value (patients with NASH; 125 mg) was 0.09%, the “% Change from Baseline GGT” value (patients with NASH; 125 mg) was −13.47% and the “% Change from Baseline HbA1c” value (patients with NASH; 125 mg) was −3.79%. For the same compound, the “% Change from Baseline Insulin” value (patients with NASH; 125 mg) was −30.08%, the “% Change from Baseline ALT” value (patients with NASH; 250 mg) was −23.82% and the “% Change from Baseline AST” value (patients with NASH; 250 mg) was −11.81%. The “% Change from Baseline Alk Phos” value (patients with NASH; 250 mg) was −18.74%, the “% Change from Baseline CK-18” value (patients with NASH; 250 mg) was −8.61% and the “% Change from Baseline ELF” value (patients with NASH; 250 mg) was 0.89%. For the same compound, the “% Change from Baseline GGT” value (patients with NASH; 250 mg) was −28.14%, the “% Change from Baseline HbA1c” value (patients with NASH; 250 mg) was −3.89% and the “% Change from Baseline Insulin” value (patients with NASH; 250 mg) was −30.62%.
